pEC50: −log10 of the molar value. *1 amine or outer side, *2 acyl side, *3 side chain or, on linkers, in order; H or OH if unused. Where a SMILES comes first, the peptide text is derived from it. [ ]: non-standard residue; d: D form. The star is where a group is joined. PEG11 = NCCOCCOCCOCCOCCOCCOCCOCCOCCOCCOCCOCCC(=O)O; X9 = NC(=O)CC[C@H](N*)C(=O)CCCCCCCCCCCCCCCCCC(=O)O; X8 = NC(=O)CC[C@H](N*)C(=O)CCCCCCCCCCCCCCCC(=O)O; X7 = CCCCCCCCCCCCCCCC(=O)[C@H](CCC(N)=O)N*; β2hAla(2S) = C[C@@H](CN[*:1])C(=O)[*:2]; hLys = NCCCCC[C@H](N)C(=O)O; Nle = CCCC[C@H](N)C(=O)O
What was measured:
[1] = biological target: T1, Relaxin receptor 1 (Homo sapiens, UniProt Q9HBX9); assay: Agonist activity at RXFP1 endogenously expressed in human OVCAR-5 cells assessed as increase in IBMX-induced cAMP accumulation pretreated with IBMX for 40 mins followed by compound addition and measured after 30 mins in presence of 2 % HSA by HTRF assay; type: functional, cell-based
T1 sequence (Q9HBX9 whole entry): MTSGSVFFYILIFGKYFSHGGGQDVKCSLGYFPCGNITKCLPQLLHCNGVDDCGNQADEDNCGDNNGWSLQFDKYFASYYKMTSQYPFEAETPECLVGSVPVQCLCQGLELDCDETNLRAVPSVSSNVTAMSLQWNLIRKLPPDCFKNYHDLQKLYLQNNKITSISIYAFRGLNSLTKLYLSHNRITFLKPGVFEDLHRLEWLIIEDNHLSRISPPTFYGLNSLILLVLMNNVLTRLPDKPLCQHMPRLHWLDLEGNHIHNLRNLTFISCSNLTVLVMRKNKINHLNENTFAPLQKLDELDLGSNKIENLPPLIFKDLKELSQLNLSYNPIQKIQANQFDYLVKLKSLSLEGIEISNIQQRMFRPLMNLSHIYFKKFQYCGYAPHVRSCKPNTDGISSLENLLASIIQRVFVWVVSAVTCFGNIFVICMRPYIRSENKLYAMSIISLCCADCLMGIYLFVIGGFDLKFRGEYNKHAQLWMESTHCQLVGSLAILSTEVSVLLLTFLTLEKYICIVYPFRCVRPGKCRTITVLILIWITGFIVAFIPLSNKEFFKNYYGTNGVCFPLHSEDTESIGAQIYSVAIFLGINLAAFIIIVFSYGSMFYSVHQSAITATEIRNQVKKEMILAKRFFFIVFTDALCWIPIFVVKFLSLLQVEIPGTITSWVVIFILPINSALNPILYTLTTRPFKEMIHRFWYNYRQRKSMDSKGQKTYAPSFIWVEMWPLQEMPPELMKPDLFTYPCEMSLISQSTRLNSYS

[2] = biological target: T2, Relaxin receptor 1 (Homo sapiens) (UniProt Q9HBX9); assay: Agonist activity at RXFP1 endogenously expressed in human OVCAR-5 cells assessed as increase in IBMX-induced cAMP accumulation pretreated with IBMX for 40 mins followed by compound addition and measured after 30 mins by HTRF assay relative to relaxin; type: functional, cell-based; conditions: filed as agonist
T2 sequence (whole entry): T1 sequence (Q9HBX9 whole entry)

[3] = biological target: T1, Relaxin receptor 1; assay: Agonist activity at RXFP1 endogenously expressed in human OVCAR-5 cells assessed as increase in IBMX-induced cAMP accumulation pretreated with IBMX for 40 mins followed by compound addition and measured after 30 mins by HTRF assay; type: functional, cell-based
[4] = Half life in Sprague-Dawley rat at 1 mg/kg, iv measured upto 72 hrs by LC-HRMS analysis; type: ADME, organism-based; conditions: in vivo
[5] = Stability in rat plasma assessed as parent compound remaining level at 5 uM remaining after 4 hrs; type: ADME, cell-free; conditions: read-out: Stabilty
[6] = Stability in human plasma assessed as parent compound remaining level at 5 uM remaining after 4 hrs; type: ADME, cell-free; conditions: read-out: Stabilty

Row | Compound | pEC50 [1] | Emax [2] [%] | pEC50 [3] | half-life [4] [h] | remaining at 4 h, 5 µM [5] [%] | remaining at 4 h, 5 µM [6] [%]
1 | CCCC[C@H](NC(=O)[C@H](CCSC)NC(=O)CNC(=O)[C@H](CCC(=O)O)NC(=O)[C@@H](C)CNC(=O)[C@@H](C)CNC(=O)[C@@H](NC(=O)[C@H](CCCCCNC(C)=O)NC(=O)[C@H](CCCCN)NC(=O)[C@H](C)NC(=O)[C@H](CCCNC(=N)N)NC(=O)[C@@H](NC(=O)[C@H](CCCCN)NC(=O)[C@H](CCC(=O)O)NC(=O)[C@H](CCCNC(=N)N)NC(=O)[C@H](CCC(=O)O)NC(=O)CNC(=O)[C@H](CCC(=O)O)NC(=O)[C@H](CC(C)C)NC(C)=O)C(C)C)[C@@H](C)CC)C(=O)N[C@@H](CCCCN)C(=O)N[C@@H](CCCCCNC(C)=O)C(=O)N[C@@H](CO)C(=O)N[C@H](C(=O)N[C@@H](Cc1c[nH]c2ccccc12)C(=O)N[C@@H](CO)C(=O)NC[C@H](C)C(=O)N[C@@H](CCCNC(=N)N)C(=O)N[C@@H](CCCCN)C(=O)N[C@@H](CCCCN)C(=O)N[C@@H](CCCCCNC(C)=O)C(=O)N[C@@H](CCCCN)C(=O)N[C@@H](CCC(=O)O)C(=O)N[C@@H](CCC(=O)O)C(=O)N[C@@H](CCC(N)=O)C(=O)CCCCCCCCCCCCCCCC(=O)O)[C@@H](C)O (Ac-LEGEREKVRAK[hLys](Ac)I[β2hAla(2S)][β2hAla(2S)]EGM[Nle]K[hLys](Ac)STWS[β2hAla(2S)]RKK[hLys](Ac)KEE-X8) | < 5.70 | 70 | 6.09 |  |  | 
2 | CCCC[C@H](NC(=O)[C@H](CCSC)NC(=O)CNC(=O)[C@H](CCC(=O)O)NC(=O)[C@@H](C)CNC(=O)[C@@H](C)CNC(=O)[C@@H](NC(=O)[C@H](CCCCCNC(C)=O)NC(=O)[C@H](CCCCN)NC(=O)[C@H](C)NC(=O)[C@H](CCCNC(=N)N)NC(=O)[C@@H](NC(=O)[C@H](CCCCN)NC(=O)[C@H](CCC(=O)O)NC(=O)[C@H](CCCNC(=N)N)NC(=O)[C@H](CCC(=O)O)NC(=O)CNC(=O)[C@H](CCC(=O)O)NC(=O)[C@H](CC(C)C)NC(C)=O)C(C)C)[C@@H](C)CC)C(=O)N[C@@H](CCCCN)C(=O)N[C@@H](CCCCCNC(C)=O)C(=O)N[C@@H](CO)C(=O)N[C@H](C(=O)N[C@@H](Cc1c[nH]c2ccccc12)C(=O)N[C@@H](CO)C(=O)NC[C@H](C)C(=O)N[C@@H](CCCNC(=N)N)C(=O)N[C@@H](CCCCN)C(=O)N[C@@H](CCCCN)C(=O)N[C@@H](CCCCCNC(C)=O)C(=O)N[C@@H](CCCCN)C(=O)N[C@@H](CCC(=O)O)C(=O)N[C@@H](CCC(=O)O)C(=O)N[C@@H](CCC(N)=O)C(=O)CCCCCCCCCCCCCCCCCC(=O)O)[C@@H](C)O (Ac-LEGEREKVRAK[hLys](Ac)I[β2hAla(2S)][β2hAla(2S)]EGM[Nle]K[hLys](Ac)STWS[β2hAla(2S)]RKK[hLys](Ac)KEE-X9) | < 5.70 | 75 | 6.43 |  |  | 
3 | CCCCCCCCCCCCCCCC(=O)[C@H](CCC(N)=O)NC(=O)[C@H](CCC(=O)O)NC(=O)[C@H](CCC(=O)O)NC(=O)[C@H](CCCCN)NC(=O)CCOCCOCCOCCOCCOCCOCCOCCOCCOCCOCCOCCNC(=O)[C@H](CCCCN)NC(=O)[C@H](CCCNC(=N)N)NC(=O)[C@@H](C)CNC(=O)[C@H](CO)NC(=O)[C@H](Cc1c[nH]c2ccccc12)NC(=O)[C@@H](NC(=O)[C@H](CO)NC(=O)[C@H](CCCC)NC(=O)[C@H](CCSC)NC(=O)CNC(=O)[C@H](CCC(=O)O)NC(=O)[C@@H](C)CNC(=O)[C@@H](C)CNC(=O)[C@@H](NC(=O)[C@H](CCC(N)=O)NC(=O)[C@H](C)NC(=O)[C@H](CCCNC(=N)N)NC(=O)[C@@H](NC(=O)[C@H](CCCCN)NC(=O)[C@H](CCC(=O)O)NC(=O)[C@H](CCCNC(=N)N)NC(=O)[C@H](CCC(=O)O)NC(=O)CNC(=O)[C@H](CCC(=O)O)NC(=O)[C@H](CC(C)C)NC(C)=O)C(C)C)[C@@H](C)CC)[C@@H](C)O (Ac-LEGEREKVRAQI[β2hAla(2S)][β2hAla(2S)]EGM[Nle]STWS[β2hAla(2S)]RK[PEG11]KEE-X7) |  | 74 | 8.49 | 6.4 |  | 
4 | CC[C@H](C)[C@H](NC(=O)[C@H](CCC(N)=O)NC(=O)[C@H](C)NC(=O)[C@H](CCCNC(=N)N)NC(=O)[C@@H](NC(=O)[C@H](CCCCN)NC(=O)[C@H](CCC(=O)O)NC(=O)[C@H](CCCNC(=N)N)NC(=O)CNC(=O)[C@H](CCC(=O)O)NC(=O)[C@H](CC(C)C)NC(C)=O)C(C)C)C(=O)NC[C@H](C)C(=O)NC[C@H](C)C(=O)N[C@@H](CCC(=O)O)C(=O)NCC(=O)N[C@@H](CCSC)C(=O)N[C@@H](CO)C(=O)N[C@@H](CCCCN)C(=O)N[C@@H](Cc1c[nH]c2ccccc12)C(=O)N[C@@H](CO)C(=O)N[C@@H](CCCCN)C(=O)N[C@@H](CCCNC(=N)N)C(=O)N[C@@H](CCCCN)C(=O)N[C@@H](CCCCN)C(N)=O (HELM PEPTIDE1{[ac].L.E.G.R.E.K.V.R.A.Q.I.[C[C@@H](CN[*:1])C(=O)[*:2]].[C[C@@H](CN[*:1])C(=O)[*:2]].E.G.M.S.K.W.S.K.R.K.K.[am]}$$$$V2.0) |  | 99 | 7.85 |  | 24 | 79
5 | CC[C@H](C)[C@H](NC(=O)[C@H](CCC(N)=O)NC(=O)[C@H](C)NC(=O)[C@H](CCCNC(=N)N)NC(=O)[C@@H](NC(=O)[C@H](CC(C)C)NC(=O)[C@H](CCC(=O)O)NC(=O)[C@H](CCCNC(=N)N)NC(=O)CNC(=O)[C@H](CO)NC(=O)[C@H](CC(C)C)NC(=O)[C@H](CCCCN)NC(=O)[C@@H](NC(=O)[C@@H](NC(C)=O)C(C)C)[C@@H](C)CC)C(C)C)C(=O)NC[C@H](C)C(=O)N[C@H](C(=O)N[C@@H](CCC(=O)O)C(=O)NCC(=O)N[C@@H](CCSC)C(=O)N[C@@H](CO)C(=O)N[C@@H](CCCCN)C(=O)N[C@@H](Cc1c[nH]c2ccccc12)C(=O)N[C@@H](CO)C(=O)N[C@@H](CCCCN)C(=O)N[C@@H](CCCNC(=N)N)C(=O)N[C@@H](CCCCN)C(=O)N[C@@H](CCCCN)C(N)=O)[C@@H](C)CC (HELM PEPTIDE1{[ac].V.I.K.L.S.G.R.E.L.V.R.A.Q.I.[C[C@@H](CN[*:1])C(=O)[*:2]].I.E.G.M.S.K.W.S.K.R.K.K.[am]}$$$$V2.0) |  | 98 | 7.34 |  |  | 
6 | CC[C@H](C)[C@H](NC(=O)[C@H](CCC(N)=O)NC(=O)[C@H](C)NC(=O)[C@H](CCCNC(=N)N)NC(=O)[C@@H](NC(=O)[C@H](CC(C)C)NC(=O)[C@H](CCC(=O)O)NC(=O)[C@H](CCCNC(=N)N)NC(=O)CNC(=O)[C@H](CO)NC(=O)[C@H](CC(C)C)NC(=O)[C@H](CCCCN)NC(=O)[C@@H](NC(=O)[C@@H](NC(C)=O)C(C)C)[C@@H](C)CC)C(C)C)C(=O)NC[C@H](C)C(=O)N[C@H](C(=O)N[C@@H](CO)C(=O)NCC(=O)N[C@@H](CCSC)C(=O)N[C@@H](CO)C(=O)N[C@H](C(=O)N[C@@H](Cc1c[nH]c2ccccc12)C(=O)N[C@@H](CO)C(=O)N[C@@H](CCCCN)C(=O)N[C@@H](CCCNC(=N)N)C(=O)N[C@@H](CO)C(=O)N[C@@H](CC(C)C)C(N)=O)[C@@H](C)O)[C@@H](C)CC (HELM PEPTIDE1{[ac].V.I.K.L.S.G.R.E.L.V.R.A.Q.I.[C[C@@H](CN[*:1])C(=O)[*:2]].I.S.G.M.S.T.W.S.K.R.S.L.[am]}$$$$V2.0) |  | 78 | 6.15 |  |  | 
7 | CC[C@H](C)[C@H](NC(=O)[C@H](CCC(N)=O)NC(=O)[C@H](C)NC(=O)[C@H](CCCNC(=N)N)NC(=O)[C@@H](NC(=O)[C@H](CC(C)C)NC(=O)[C@H](CCC(=O)O)NC(=O)[C@H](CCCNC(=N)N)NC(=O)CNC(=O)[C@H](CO)NC(=O)[C@H](CC(C)C)NC(=O)[C@H](CCCCN)NC(=O)[C@@H](NC(=O)[C@@H](NC(C)=O)C(C)C)[C@@H](C)CC)C(C)C)C(=O)NC[C@H](C)C(=O)NC[C@H](C)C(=O)N[C@@H](CO)C(=O)NCC(=O)N[C@@H](CCSC)C(=O)N[C@@H](CO)C(=O)N[C@H](C(=O)N[C@@H](Cc1c[nH]c2ccccc12)C(=O)N[C@@H](CO)C(=O)N[C@@H](CCCCN)C(=O)N[C@@H](CCCNC(=N)N)C(=O)N[C@@H](CCCCN)C(=O)N[C@@H](CCCCN)C(N)=O)[C@@H](C)O (HELM PEPTIDE1{[ac].V.I.K.L.S.G.R.E.L.V.R.A.Q.I.[C[C@@H](CN[*:1])C(=O)[*:2]].[C[C@@H](CN[*:1])C(=O)[*:2]].S.G.M.S.T.W.S.K.R.K.K.[am]}$$$$V2.0) |  | 99 | 7.04 |  |  | 
8 | Ac-EEVIKLSGRELVRAQIAISGMSTWSKRKK-NH2 |  | 92 | 6.05 |  |  | 
9 | Ac-VIKLSGRELVRAQIAISGMSTWSKRKK-NH2 |  | 89 | 6.28 |  |  | 

Source: ChEMBL document CHEMBL4732190, “Identification of Potent and Long-Acting Single-Chain Peptide Mimetics of Human Relaxin-2 for Cardiovascular Diseases” (J Med Chem, 2021)
